We go through 14 compounds from PubChem BioAssay (NCI).

Some test systems named below: CCRF-CEM leukemia; KM12 colon; LOX IMVI melanoma; MDA-MB-231 breast; NCI-H226 lung; OVCAR-3 ovarian; RPMI-8226 leukemia; SF-268 CNS; SNB-19 CNS; UACC-257 melanoma.
What all share (experiment): NCI-60 cell line screen, 48 h

“And” between values parts separate entries of the source, which are not always exact repeats. Equal values may be shown once.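 These data come from cells grown in 96-well plates and exposed to compound for 48 hours at five concentrations. GI50 = concentration required for 50% inhibition of growth. At the TGI there is no net growth.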 A value given as a limit tells only on which side of the number the result lay.

For `CC(=O)OCCOCn1c2c(c(=S)[nH]c1=O)CCC2`, the TGI in the assay on CCRF-CEM leukemia, with KM12 colon, in the assay on LOX IMVI melanoma, with MDA-MB-231 breast, in the assay with NCI-H226 lung and in the assay on OVCAR-3 ovarian was over 100 µM in each case. The TGI with RPMI-8226 leukemia, in the assay with SF-268 CNS, in the assay with SNB-19 CNS and with UACC-257 melanoma was over 100 µM throughout.

For the compound `COC(=O)NCCc1[nH]nc2c1C(=O)C=C(N1CCOCC1)C2=O`, the TGI with CCRF-CEM leukemia, with KM12 colon, in the assay with LOX IMVI melanoma, in the assay on MDA-MB-231 breast, in the assay with NCI-H226 lung and in the assay with OVCAR-3 ovarian was over 100 µM in each case. Also, the TGI in the assay with RPMI-8226 leukemia, in the assay with SF-268 CNS, with SNB-19 CNS and in the assay on UACC-257 melanoma was over 100 µM throughout.

For `COC(=O)/C(=C\Nc1cccc(C)n1)S(=O)(=O)c1ccc(C)cc1`, the TGI was over 100 µM in the assay with CCRF-CEM leukemia; 90.3 µM in the assay with KM12 colon; over 100 µM in the assay on LOX IMVI melanoma; over 100 µM in the assay with MDA-MB-231 breast; over 100 µM in the assay on NCI-H226 lung; over 100 µM in the assay on OVCAR-3 ovarian. For the same compound, the TGI in the assay on RPMI-8226 leukemia, in the assay on SF-268 CNS, in the assay on SNB-19 CNS and with UACC-257 melanoma was over 100 µM in each case.

Consider `CC(=O)OC(/C=C/c1ccccc1)P1(=O)N(CC(C)(C)C)[C@@H]2CCCC[C@H]2N1CC(C)(C)C` (stereo not given in full), for which the TGI was 47.8 µM and 34.1 µM in the assay with CCRF-CEM leukemia; 26.1 µM and 21.4 µM with KM12 colon; 24 µM and 24.5 µM in the assay on LOX IMVI melanoma; 24.4 µM and 20.4 µM in the assay on MDA-MB-231 breast; 21.8 µM and 25.7 µM in the assay on NCI-H226 lung; 25.4 µM and 17.1 µM with OVCAR-3 ovarian. In addition, the TGI in the assay with RPMI-8226 leukemia was 12.1 µM; in the assay with SF-268 CNS it was 23.3 µM and 22.7 µM; with SNB-19 CNS it was 23.5 µM and 24.2 µM; in the assay with UACC-257 melanoma, 13.2 µM and 11.6 µM. Moreover, in the assay on OVCAR-3 ovarian, the GI50 is 8.41 µM and 3.47 µM.

Turning to `COC(=O)c1c(O)ccc2c1c1c(n2Cc2ccccc2Cl)C(=O)c2ccccc2C1=O`, the TGI amounted to 43.6 µM in the assay on CCRF-CEM leukemia; 24.1 µM in the assay on KM12 colon; 32.3 µM with MDA-MB-231 breast; 36.6 µM in the assay on NCI-H226 lung; 21.8 µM with OVCAR-3 ovarian; 29.5 µM in the assay with RPMI-8226 leukemia. Moreover, the TGI was found to be 29.4 µM in the assay on SF-268 CNS, 33.7 µM with SNB-19 CNS and 32.8 µM with UACC-257 melanoma.

With `CC[C@H](O)[C@H](C)C=C1SCCCS1`, the TGI with CCRF-CEM leukemia, with KM12 colon, with LOX IMVI melanoma, in the assay with MDA-MB-231 breast, in the assay with NCI-H226 lung and in the assay with OVCAR-3 ovarian was over 100 µM throughout. Also, the TGI in the assay with RPMI-8226 leukemia, with SF-268 CNS and in the assay with UACC-257 melanoma was over 100 µM in each case.

On to `CCC(CON(C)c1ccccc1)(SC)SC`, for which the TGI with CCRF-CEM leukemia, in the assay with KM12 colon, in the assay with LOX IMVI melanoma, in the assay with MDA-MB-231 breast, in the assay with NCI-H226 lung and in the assay on RPMI-8226 leukemia was over 100 µM each time. In addition, the TGI with SF-268 CNS, in the assay with SNB-19 CNS and in the assay with UACC-257 melanoma was over 100 µM throughout.

Turning to `NC(N)=N/N=C/c1nc2n(c1[N+](=O)[O-])CCS2`, the TGI in the assay on KM12 colon is over 100 µM; in the assay on LOX IMVI melanoma, 92.6 µM; in the assay on MDA-MB-231 breast, over 100 µM; in the assay with NCI-H226 lung, over 100 µM; with OVCAR-3 ovarian, 70.2 µM; in the assay on RPMI-8226 leukemia, over 100 µM. Besides, the TGI is over 100 µM in the assay with SF-268 CNS, over 100 µM with SNB-19 CNS and 44.6 µM in the assay on UACC-257 melanoma.

As for `CC(=O)[C@@]1(C)CC2(CCN(C)CC2)OC1C` (stereo not given in full), the TGI in the assay on KM12 colon, in the assay on LOX IMVI melanoma, with MDA-MB-231 breast, with NCI-H226 lung, in the assay with OVCAR-3 ovarian and in the assay on RPMI-8226 leukemia was over 100 µM in each case. Besides, the TGI in the assay on SF-268 CNS, in the assay with SNB-19 CNS and in the assay on UACC-257 melanoma was over 100 µM throughout.

On to `O=C(c1ccccc1)N1CCN(C(=S)N(C(=O)c2ccccc2)c2ccccc2)C1=S`, for which the TGI in the assay on CCRF-CEM leukemia is over 25.8 µM; in the assay with KM12 colon, 20.5 µM; in the assay on LOX IMVI melanoma it was 3.67 µM; with MDA-MB-231 breast it was over 42.5 µM; in the assay with NCI-H226 lung it was 32 µM; with OVCAR-3 ovarian, 15.4 µM. Also, the TGI in the assay on SF-268 CNS was found to be 14.7 µM; in the assay on SNB-19 CNS, 26.3 µM; with UACC-257 melanoma, 22.4 µM.

On to `[N-]=[N+]=C1N=CN=C1c1ncn[nH]1`, for which the TGI was 27.6 µM with CCRF-CEM leukemia; over 100 µM in the assay on KM12 colon; 40 µM in the assay on LOX IMVI melanoma; over 100 µM with MDA-MB-231 breast; over 100 µM with NCI-H226 lung; over 100 µM in the assay with OVCAR-3 ovarian. Also, the figures for the TGI with RPMI-8226 leukemia, with SNB-19 CNS and with UACC-257 melanoma were 38.8 µM, over 100 µM and over 100 µM, respectively.

As for `CC[C@]12C=CCN3CC[C@@]4(c5cc(Br)c(OC)cc5N(C)[C@H]4[C@@](O)(C(=O)NN)[C@@H]1O)[C@@H]32`, the TGI with CCRF-CEM leukemia, with KM12 colon, with LOX IMVI melanoma, in the assay with MDA-MB-231 breast, with NCI-H226 lung and in the assay with OVCAR-3 ovarian was over 100 µM in each case. In addition, the TGI in the assay on SF-268 CNS, in the assay on SNB-19 CNS and in the assay on UACC-257 melanoma was over 100 µM in each case.

For the compound `CCOC(=O)C1=CNC(C(=O)OCC)C1c1cccn1-c1ccc(Cl)cc1[N+](=O)[O-]` (stereo not given), the TGI was found to be 66.1 µM in the assay on CCRF-CEM leukemia; 47.5 µM in the assay with KM12 colon; 29.4 µM with LOX IMVI melanoma; 27.2 µM in the assay with MDA-MB-231 breast; 50 µM in the assay on NCI-H226 lung; 30.3 µM with OVCAR-3 ovarian. Besides, the results for the TGI in the assay on SF-268 CNS and in the assay on UACC-257 melanoma were 55.5 µM and 70 µM, respectively.

With `N/C(=N\S(=O)(=O)c1ccc(S(=O)(=O)c2ccccc2)s1)Nc1ccc(Cl)cc1`, the TGI with KM12 colon is over 100 µM; in the assay on LOX IMVI melanoma it was 32.4 µM; in the assay on MDA-MB-231 breast, 28.8 µM; with NCI-H226 lung, 88.6 µM; with OVCAR-3 ovarian it was 79.6 µM; with RPMI-8226 leukemia, 88.7 µM. In addition, the TGI is 47.7 µM in the assay with SF-268 CNS, over 100 µM with SNB-19 CNS and 29.1 µM in the assay with UACC-257 melanoma.
